Here are results for 19 compounds from USRE43327E1, “Hydrophobic polyamine analogs and methods for their use” (Aminex Therapeutics, Inc., priority 2001, dated 2012).

Data set [1] deals with 4 cell lines (A375, MDA-MB-231, PC-3, SK-OV-3). Description: Growth inhibition with DFMO, average over 4 cell lines. The data set is classed as cell-based. The following applies: Table 3; average over cell lines, with DFMO; read-out: AVG. EC50.
Procedure: Cells were plated in 96-well plates such that they would be in log growth for the duration of the assay. The day after plating, PAs were added to the cells, and growth, if any, permitted to continue for six days in the presence of 1 mM AG and 0.5 μM SPD to insure that any growth inhibition was not the result of depletion of external polyamines in the media. At the end of the six days, cell growth was measured by MTS/PMS dye assay (Cell Titer 96 Aqueous Non-Radioactive Cell Proliferation Assay; Promega, Madison, Wis.).
Data set [2] concerns PC-3. Description: Growth inhibition assay, PA alone, PC-3. The conditions noted are these: PA alone (no DFMO), six days, repeat determinations, read-out: Cell Line IC50 PC-3. The data set is classed as cell-based. The method in brief:
(§1)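 Culture: 2 mM L-glutamine, pen 50 U/ml, strep 50 μg/ml. Polyamine/ORI-treated wells: +1 mM aminoguanidine (serum amine oxidase inhibitor).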

Data set [3] deals with SK-OV-3. Description: Growth inhibition assay, PA alone, SK-OV-3. Format: cell-based. The following applies: PA alone (no DFMO), six days, repeat determinations, read-out: Cell Line IC50 SK-OV-3. The essentials:
as §1

Data set [4] concerns polyamine transport in MDA-MB-231 cells. Description: Polyamine transport and Ki assay (3H-spermidine uptake). Format: cell-based. The following applies: 15 min 37° C., Lineweaver-Burke analysis. The procedure:
[2,9-^3H]spermidine (SPD) from DuPont NEN, Boston, Mass. was added alone or simultaneously with PAs to 24-well plates containing MDA-MB-23 1 cells in log growth. The cells were incubated at 37° C. for 15 min to determine initial rate polyamine uptake. The cells were then washed three times with cold PBS, lysed with 0.1% SDS, and the amount of polyamine incorporation into the cells was determined by scintillation counting of the cell lysates. […] The Ki values were determined using double reciprocal Lineweaver-Burke plot analyses. Ki values were determined from linear equations derived from graphing the slopes of Lineweaver-Burke plot vs. inhibitor concentration, with Ki=y-intercept/slope.

Data set [5] deals with SK-OV-3. The data set is described as follows: Growth inhibition assay (MTS/PMS) with DFMO, SK-OV-3. The data set is classed as cell-based. The conditions noted are these: in the presence of DFMO (1-5 mM), 1 mM AG, 0.5 μM SPD, six days; repeat determinations; read-out: Cell Line EC50 SK-OV-3. How it is done: (§2) Medias were obtained from Mediatech, Inc. (Herdon, Va.) and serums from Gibco BRL (Gaithersburg, Md.). 50 U/ml penicillin, 50 μg/ml streptomycin and 2 mM L-glutamine (all from Bio Whittaker, Walkersville, Md.) were included in all cultures. […] When cells were cultured with polyamines or ORI compounds, 1 mM aminoguanidine (AG; Sigma) was included to inhibit serum amine oxidase activity.

In data set [6] the test system is MDA-MB-231. The data set is described as follows: Growth inhibition assay (MTS/PMS) with DFMO, MDA-MB-231. The conditions noted are these: in the presence of DFMO (1-5 mM), 1 mM AG, 0.5 μM SPD, six days; repeat determinations; read-out: Cell Line EC50 MDA-MB-231. The data set is classed as cell-based. The procedure: as §2
In data set [7] the test system is PC-3. The data set is described as follows: Growth inhibition assay (MTS/PMS) with DFMO, PC-3. Format: cell-based. The following applies: in the presence of DFMO (1-5 mM), 1 mM AG, 0.5 μM SPD, six days; repeat determinations; read-out: Cell Line EC50 PC-3. The procedure:
as §2

Data set [8] has as its system MDA-MB-231. The data set is described as follows: Growth inhibition assay, PA alone, MDA-MB-231. The conditions noted are these: PA alone (no DFMO), six days; repeat determinations; read-out: Cell Line IC50 MDA-MB-231. Format: cell-based. The essentials: as §1
Data set [9] deals with A375. The data set is described as follows: Growth inhibition assay, PA alone, A375. The following applies: PA alone (no DFMO), six days, repeat determinations, read-out: Cell Line IC50 A375. Format: cell-based. The method in brief: as §1
Data set [10] has as its system A375. Description: Growth inhibition assay (MTS/PMS) with DFMO, A375. Format: cell-based. The following applies: in the presence of DFMO (1-5 mM), 1 mM AG, 0.5 μM SPD, six days; repeat determinations; read-out: Cell Line EC50 A375. The procedure: as §2
The conditions of data set [11]: amino acid side chain, un-ionized fraction; Wolfenden 1981; cited from earlier work.

Where “and” joins values, the source holds several entries; their conditions need not be identical. Identical values can stand only once. Like-named read-outs stand apart in the source and are kept apart here. Bounds are passed on as bounds.

As for `CCCCCCCCCCCCCCCCCCCC(=O)NCCCC[C@H](N)C(=O)NCCCNCCCCNCCCN` [IA1], in [1], the EC50 – broadly, the concentration giving half of the maximal effect – stood at 17 nM. Besides, the IC50 in data set [2] and in data set [3] was over 3000 nM each time. Also, affinity in [4] was put at a Ki of 15 nM.

Turning to `CCCCCCCCCCCCCCCCCC(=O)NCCCC[C@H](N)C(=O)NCCCNCCCCNCCCN` [IA2], the EC50 is 27 nM and 21 nM in data set [5]; 14 nM in data set [1]. For the same compound, affinity in data set [4] was put at a Ki of 1.4 nM.

In the case of `CCCCCCCCCCCCCCCC(=O)NCCCC[C@H](N)C(=O)NCCCNCCCCNCCCN` [IA4], the concentration for a half-maximal effect (EC50) in data set [1] was 77 nM. The affinity in data set [4], expressed as Ki, was 1.5 nM.

Regarding `NCCCNCCCCNCCCNC(=O)[C@@H](N)CCCCNC(=O)OCc1ccccc1` [IA40], the concentration giving a half-maximal response (EC50) in data set [6] was 41300 nM and 29800 nM; in data set [7], 8510 nM and 7870 nM. In addition, the IC50 in data set [8] and in data set [2] was over 300000 nM throughout. Also, in data set [4], the affinity, expressed as Ki, was 39 nM.

For `CCCCCCCCCCCCCCCC(=O)NCCCC[C@@H](N)C(=O)NCCCNCCCCNCCCN` [IB4], the EC50 in data set [1] was determined as 105 nM. In data set [4], the affinity corresponds to a Ki of 17 nM.

Regarding `CCCCCCCCC(=O)NCCCC[C@@H](N)C(=O)NCCCNCCCCNCCCN` [IB6], the concentration for half-maximal inhibition (IC50) (usually the concentration that gives 50% inhibition) in [9] (Homo sapiens, A-375, 144 h) was over 30000 nM; in data set [2] (Homo sapiens, PC-3, 144 h), over 30000 nM; in [3] (Homo sapiens, SK-OV-3, 144 h) it was over 30000 nM. In data set [4], the affinity corresponds to a Ki of 75 nM.

On to `CC(C)(C)OC(=O)N[C@@H](CCCCN)C(=O)NCCCNCCCCNCCCN` [IC41], for which the concentration for a half-maximal effect (EC50) in data set [6] was 36900 nM; in data set [7] it was 16900 nM. Further, the results for the IC50 in data set [8] and in data set [2] were over 300000 nM and 430000 nM, respectively. Also, in data set [4], the Ki (as a rule, a measure of affinity in units of concentration, obtained from inhibition or displacement) came to 191 nM.

Turning to `CCCCCCCCCCCCCCCCS(=O)(=O)NCCCC[C@H](N)C(=O)NCCCNCCCCNCCCN` [IIA10], the EC50 in [10] was 16 nM and 10 nM and 9 nM; in data set [5], 98 nM and 83 nM and 80 nM; in data set [1] it was 72 nM. In addition, affinity in [4] was put at a Ki of 4 nM.

Take `CCCCCCCCCCCCCCCCS(=O)(=O)NCCCC[C@@H](N)C(=O)NCCCNCCCCNCCCN` [IIB10]: the EC50 in data set [10] is 26 nM and 44 nM; in [6], 169 nM; in [7] it was 99 nM and 74 nM; in data set [5] it was 134 nM and 224 nM; in data set [1], 110 nM. Further, the IC50 in data set [9] was 18000 nM and 17700 nM; in data set [8] it was over 30000 nM; in data set [2], 22000 nM and 19900 nM; in data set [3], 18100 nM and 23100 nM. Further, the Ki in data set [4] turned out to be 2 nM.

`CCCCCCCC/C=C\CCCCCCCC(=O)NCCCC[C@@H](N)C(=O)NCCCNCCCCNCCCN` [IIIB1]: the concentration for a half-maximal effect (EC50) in data set [10] was 170 nM; in data set [6] it was 491 nM; in data set [7] it was 99 nM; in data set [5], 1570 nM; in data set [1], 583 nM. In addition, the 50% inhibitory concentration (IC50) in data set [9], in data set [8], in data set [2] and in data set [3] was over 30000 nM in each case. The compound also registered a Ki in [4] of 54 nM.

Turning to `CC(C)(C)CCNCCCC[C@H](N)C(=O)NCCCNCCCCNCCCN` [IVA22], the EC50 in [10] worked out at 739 nM; in data set [6], 1660 nM; in data set [7], 711 nM; in [5], 937 nM; in data set [1], 1010 nM. The IC50 in [9], in data set [8], in data set [2] and in [3] was over 100000 nM in each case.

Regarding `NCCCNCCCCNCCCNC(=O)[C@@H](N)CCCCNCC1CC2C=CC1C2` (some centres unmarked) [IVA25], the EC50 in data set [10] is 1040 nM; in data set [6], 3550 nM; in data set [7] it was 710 nM; in data set [5], 2300 nM; in [1], 1900 nM. For the same compound, the IC50 in [9], in data set [8], in data set [2] and in [3] was over 100000 nM each time.

On to `NCCCNCCCCNCCCNC(=O)[C@H](N)CCCCNCC1CC2CCC1C2` (some centres unmarked) [IVB26], for which the EC50 in data set [10] was 2400 nM; in data set [6], 1990 nM; in data set [7], 910 nM and 1530 nM; in data set [5], 7560 nM and 6070 nM; in data set [1], 3410 nM. Also, the IC50 in [9], in data set [8], in [2] and in data set [3] was over 100000 nM throughout.

On to `CCCCCCCNCCCC[C@@H](NCCCCCCC)C(=O)NCCCNCCCCNCCCN` [IVF6], for which the EC50 was determined as 940 nM in data set [10]; 8030 nM in data set [6]; 1880 nM in data set [7]; 9500 nM in data set [5]; 5090 nM in data set [1]. Besides, the half-maximal inhibitory concentration (IC50) in data set [9] was 67900 nM; in data set [8] it was over 100000 nM; in [2], over 100000 nM; in [3] it was 67700 nM.

Turning to `NCCCNCCCCNCCCNC(=O)[C@@H](CCCCNCC1CCCCC1)NCC1CCCCC1` [IVF27], the EC50 was 2180 nM in data set [10]; 2340 nM in data set [6]; 500 nM in data set [7]; 2160 nM in data set [5]; 1800 nM in data set [1]. Further, the IC50 in data set [9], in data set [8], in data set [2] and in data set [3] was over 100000 nM in each case.

In the case of `[HH]` [hydrogen], in [11], the “free energy for the transfer from the vapor phase to H2O (hydration potential)” value (“free energy for the transfer” for short) was 2.39 kcal/mol.

In the case of `C` [methane], the “free energy for the transfer” value in data set [11] is on record as 1.94 kcal/mol.

As for `CCCCN` [n-butylamine], the “free energy for the transfer” value in data set [11] is -7.00 kcal/mol.

Turning to `CCCNC(=N)N` [n-propylguanidine], the “free energy for the transfer” value in data set [11] was -14.6 kcal/mol.
